# Laboratory results published in ChEMBL document CHEMBL3886313, “Ketone linked benzothiazole inhibitors of endothelial lipase” (2015).
# Biological target: T1, Endothelial lipase (Homo sapiens, UniProt Q9Y5X9)
# T1 sequence (Q9Y5X9 whole entry): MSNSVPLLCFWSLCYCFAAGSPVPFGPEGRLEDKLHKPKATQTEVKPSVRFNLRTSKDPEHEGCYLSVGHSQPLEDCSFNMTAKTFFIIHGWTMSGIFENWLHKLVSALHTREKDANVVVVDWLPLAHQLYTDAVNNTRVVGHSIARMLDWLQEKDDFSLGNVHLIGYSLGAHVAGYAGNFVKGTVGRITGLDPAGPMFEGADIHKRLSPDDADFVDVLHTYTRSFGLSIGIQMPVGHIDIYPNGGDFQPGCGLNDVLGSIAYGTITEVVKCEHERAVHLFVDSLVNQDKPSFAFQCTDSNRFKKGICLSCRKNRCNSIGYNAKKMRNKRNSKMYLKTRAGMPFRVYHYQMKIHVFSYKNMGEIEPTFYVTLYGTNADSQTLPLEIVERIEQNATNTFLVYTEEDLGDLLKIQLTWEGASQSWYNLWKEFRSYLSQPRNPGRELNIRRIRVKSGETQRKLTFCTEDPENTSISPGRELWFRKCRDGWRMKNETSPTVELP
# Test: Enzymatic Assay: The enzymatic assay was measured using white, opaque 96-well half area plates. Each well contained 60 μL of assay buffer (50 mM HEPES pH 8.0, 50 mM NaCl and 1 mM CaCl2) and 2 ul of a DMSO solution containing compound of interest. Conditioned media obtained from HT-1080 cells, which were transformed by RAGE technology (Athersys) to overexpress endogenous EL, was added and the reaction was allowed to incubate for 20 min at 37° C. with gentle agitation. The reaction was started by the addition of 20 μL of a 1:4 dilution of vesicles. The final total reaction volume was 100 μL. The reaction rates were measured on a Gemini plate reader with an excitation wavelength of 488 nm and an emission of 530 nm. Readings were taken every 20 seconds for 10 min with agitation between each reading.
# Format: cell-based
row,SMILES,IC50 [nM]
1,CC(C)(C)CN1CC(c2nnc(C(=O)c3nc4ccc(-c5ccc(F)cc5)cc4s3)o2)C1,4.8
2,C[C@H](NC(=O)OC(C)(C)C)c1nnc(C(=O)c2nc3ccc(-c4ccccc4)cc3s2)o1,66
3,O=C1NC(=O)C(Cc2nnc(C(=O)c3nc4ccc(-c5ccccc5)cc4s3)o2)S1 (stereo not given),< 10
4,COc1nc(-c2nnc(C(=O)c3nc4ccc(-c5ccccc5)cc4s3)o2)c(OCc2ccccc2)c(=O)[nH]1,76
5,C[C@@H](NC(=O)OC(C)(C)C)c1nnc(C(=O)c2nc3ccc(-c4ccccc4)cc3s2)o1,< 10
6,CC1(Cc2nnc(C(=O)c3nc4ccc(-c5ccccc5)cc4s3)o2)NC(=O)N(CC(F)(F)F)C1=O (stereo not given),< 10
7,CC(C)(C)CN1CC(c2nnc(C(=O)c3nc4c(F)cc(-c5ccccc5)cc4s3)o2)C1,18
8,O=C1NC(=O)C(Cc2nnc(C(=O)c3nc4ccc(-c5ccccc5)cc4s3)o2)N1 (stereo not given),< 10
9,COc1nc(-c2nnc(C(=O)c3nc4ccc(-c5ccc(F)cc5)cc4s3)o2)c(OCc2ccccc2)c(=O)[nH]1,122
10,NS(=O)(=O)Cc1nnc(C(=O)c2nc3ccc(-c4ccccc4)cc3s2)o1,< 10
